Data on one compound can be found in patent US20060257466A1, “Administration of macrophage targeted formulations of compounds which modulate cholesterol-metabolizing enzymes for treatment of atherosclerosis” (priority 2005, published 2006).

For this assay, the system named is J774 macrophages. As to the kind of experiment: Cholesterol efflux in vivo (macrophage cholesterol export). The note with it: mice injected with [3H]-cholesterol-loaded J774 cells; 20 μg, tail vein; versus PBS vehicle; FIG. 1. As for the experimental part: FIG. 1 is a line graph comparing in vivo macrophage cholesterol export in mice treated with a liposomal formulation of the ACAT inhibitor, Sandoz 58-035, at an estimated dose of 20 μg (open circles), mice treated with 20 μg of free non-liposome formulated Sandoz 58-035 (closed circles), and mice administered phosphate buffered saline (closed triangles).
For non-liposome formulated Sandoz 58-035 experiments, 10 ul of the stock solution (2 mg/ml) was diluted with 190 ul of phosphate buffered saline (PBS) to give a final Sandoz 58-035 solution of 20 μg/200 μl. Two hundred microliters of this solution containing 20 μg of Sandoz 58-035 was injected into each mouse through the tail vein.
Sandoz 58-035 was liposome formulated using a modified method of Jonas and co-workers (Jonas et al. J. Bio. Chem. 1989 264:4818-4825). […]
To determine cholesterol export in vivo, J774 cells were loaded with cholesterol and simultaneously incubated for 3 hours with 0.5 μCi/mL [^3H]-cholesterol, followed by an overnight equilibration period as described by Tam et al. (J. Lipid Res. 2002 43:1410-1420). […] Cholesterol efflux was determined by measuring the appearance of [^3H]-cholesterol in plasma by scintillation spectrometry. […]

Consider `CCCCCCCCCC[Si](C)(C)CCC(=O)NC(Cc1ccc(C)cc1)c1ccccc1` (stereo not shown) [Sandoz 58-035], for which the “in vivo macrophage cholesterol export (result in words)” value was “did not increase macrophage cholesterol export over the vehicle”.
